The subject of test [1] is Sindbis virus. Format: cell-based.
For test [2], the system named is Vesicular Stomatitis Virus. It counts as cell-based.
The subject of a further test is hNRAMP2. The test is described as follows: NRAMP2 expression (RT-PCR) in U2OS cells with iron. It counts as cell-based, human. How it is done:
Cells were treated with 160 μM Ammonium Iron(III) Citrate for three days prior to and throughout the infection.
Total RNA was purified using Trizol and used for reverse transcription with random priming and MLV-RT (Invitrogen) followed by PCR using the indicated primers.

Test [3] relates to Venezuelan Equine Encephalitis virus (VEE). It counts as cell-based.
The next test relates to Ross River virus. It counts as cell-based. The following applies: iron treatment (not shown).
In test [4] the test system is Sindbis virus. Format: cell-based. This is another data set of the same source.
The test system of the next test is West Nile virus. It counts as cell-based.
A further test deals with Sindbis virus / NRAMP2 (Homo sapiens, UniProt P49281). Format: cell-based.
Test [5] deals with human Natural Resistance-Associated Macrophage Protein 2 (hNRAMP2) (human) (UniProt P49281). The test is described as follows: cell-based or functional assay.
human Natural Resistance-Associated Macrophage Protein 2 (hNRAMP2) (human), sequence (P49281 whole entry): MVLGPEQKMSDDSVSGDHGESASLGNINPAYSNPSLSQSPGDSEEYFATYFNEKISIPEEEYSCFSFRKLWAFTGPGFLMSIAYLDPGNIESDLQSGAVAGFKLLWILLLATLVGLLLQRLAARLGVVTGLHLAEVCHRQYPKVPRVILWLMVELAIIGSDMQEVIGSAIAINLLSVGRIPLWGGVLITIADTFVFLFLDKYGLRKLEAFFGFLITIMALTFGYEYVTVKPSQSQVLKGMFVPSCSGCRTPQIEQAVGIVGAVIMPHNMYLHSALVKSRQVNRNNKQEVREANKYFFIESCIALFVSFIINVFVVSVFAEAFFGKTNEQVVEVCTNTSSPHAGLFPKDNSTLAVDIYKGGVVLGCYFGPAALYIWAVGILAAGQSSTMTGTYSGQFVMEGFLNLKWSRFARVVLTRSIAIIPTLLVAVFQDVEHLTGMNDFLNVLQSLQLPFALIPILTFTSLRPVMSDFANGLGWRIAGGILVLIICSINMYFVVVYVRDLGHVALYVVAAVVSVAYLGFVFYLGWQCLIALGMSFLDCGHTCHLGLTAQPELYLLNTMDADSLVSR

Sindbis virus / NRAMP2, sequence (P49281 whole entry, looked up): as the sequence (P49281 whole entry) above

As to `Cl.N` [ammonium chloride], in the test with Sindbis virus [1], the Sindbis infection result was “inhibited infection”.
Regarding Ammonium Iron(III) Citrate, the VSV infection entry in test [2] is given as “no effect”. For the same molecule, the NRAMP2 expression entry with hNRAMP2 (NRAMP2 over-expressing cells treated with iron (FIG. 7A)) is “decrease”. Further, the NRAMP2 expression result in the test on hNRAMP2 (U2OS cells, high iron (FIG. 7A)) is given as “decreased”. Also, the VEE infection entry in [3] is “sensitive”. The “Ross River virus infection” value in the test with Ross River virus was “insensitive”. Moreover, in the test on Sindbis virus [4], the “reduction in virus binding to iron-treated cells compared to controls” value is around 17 fold. The “West Nile virus infection” value in the test with West Nile virus is on record as “no effect”. In addition, on Sindbis virus / NRAMP2, the “NRAMP2 co-precipitation with Sindbis virus” value was “lost” and the “Sindbis virus binding (streptavidin precipitation, immunoblot)” value was “attenuated”.
“Sindbis virus (biotinylated infectious virus particles)”: the percentage of infected cells on NRAMP2 over-expression in test [5] was determined as 2 fold.

Values taken from US20130295115A1, “COMPOSITIONS AND METHODS FOR TREATING […]” (priority 2010, published 2013).
